Experimental data: PubChem BioAssay (NCI)
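Growth conditions: 96-well plates. Treatment: test compound, 48 hours, 5 concentrations. Analysis: linear interpolation between bracketing concentrations; unreached endpoints set to highest concentration. TGI is the concentration that stops growth completely.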

How the values were obtained:
Assay in all cases: growth of human tumour cells (NCI), 48 h
A549 NSCLC = test system: A549 NSCLC
MDA-MB-435 = test system: MDA-MB-435
UACC-257 melanoma = test system: UACC-257 melanoma
MDA-MB-231 breast = test system: MDA-MB-231 breast
T-47D breast = test system: T-47D breast
SW-620 colon = test system: SW-620 colon
A498 renal = test system: A498 renal
UO-31 renal = test system: UO-31 renal
COLO 205 colon = test system: COLO 205 colon
SN12C renal = test system: SN12C renal
RPMI-8226 leukemia = test system: RPMI-8226 leukemia
OVCAR-8 ovarian = test system: OVCAR-8 ovarian
NCI/ADR-RES ovarian = test system: NCI/ADR-RES ovarian
SK-MEL-2 melanoma = test system: SK-MEL-2 melanoma
OVCAR-4 ovarian = test system: OVCAR-4 ovarian
NCI-H226 lung = test system: NCI-H226 lung
UACC-62 melanoma = test system: UACC-62 melanoma
SK-MEL-28 melanoma = test system: SK-MEL-28 melanoma
DU-145 prostate = test system: DU-145 prostate
MOLT-4 leukemia = test system: MOLT-4 leukemia
ACHN renal = test system: ACHN renal
RXF 393 renal = test system: RXF 393 renal
SK-OV-3 ovarian = test system: SK-OV-3 ovarian
MCF7 breast = test system: MCF7 breast
NCI-H23 lung = test system: NCI-H23 lung
SNB-19 CNS = test system: SNB-19 CNS
HCT-116 colon = test system: HCT-116 colon
OVCAR-3 ovarian = test system: OVCAR-3 ovarian
HS 578T breast = test system: HS 578T breast
LOX IMVI melanoma = test system: LOX IMVI melanoma
HCC-2998 colon = test system: HCC-2998 colon
HOP-92 NSCLC = test system: HOP-92 NSCLC
SNB-75 CNS = test system: SNB-75 CNS
HT29 colon = test system: HT29 colon
M14 melanoma = test system: M14 melanoma
K-562 leukemia = test system: K-562 leukemia
CAKI-1 renal = test system: CAKI-1 renal
U251 CNS = test system: U251 CNS
OVCAR-5 ovarian = test system: OVCAR-5 ovarian
SF-539 CNS = test system: SF-539 CNS
BT-549 breast = test system: BT-549 breast
HCT-15 colon = test system: HCT-15 colon
EKVX NSCLC = test system: EKVX NSCLC
SK-MEL-5 melanoma = test system: SK-MEL-5 melanoma
786-0 renal = test system: 786-0 renal
PC-3 prostate = test system: PC-3 prostate
TK-10 renal = test system: TK-10 renal
CCRF-CEM leukemia = test system: CCRF-CEM leukemia
HOP-62 NSCLC = test system: HOP-62 NSCLC
SF-295 CNS = test system: SF-295 CNS
NCI-H460 lung = test system: NCI-H460 lung
IGROV1 ovarian = test system: IGROV1 ovarian
MDA-N = test system: MDA-N
HL-60(TB) leukemia = test system: HL-60(TB) leukemia
SF-268 CNS = test system: SF-268 CNS
KM12 colon = test system: KM12 colon
MALME-3M melanoma = test system: MALME-3M melanoma
NCI-H522 lung = test system: NCI-H522 lung

CC1=CC(C2/C(=N/O)C=C(C)CC2(C)C)C(O)C(C)(C)C1 (centres undefined)
TGI (A549 NSCLC): 29.6 µM
TGI (MDA-MB-435): 31.2 µM
TGI (UACC-257 melanoma): 30.1 µM
TGI (MDA-MB-231 breast): 31.6 µM
TGI (T-47D breast): 28.1 µM
TGI (SW-620 colon): 41.8 µM
TGI (A498 renal): 33.3 µM
TGI (UO-31 renal): 29 µM
TGI (COLO 205 colon): 36 µM
TGI (SN12C renal): 33.3 µM
TGI (RPMI-8226 leukemia): 33.6 µM
TGI (OVCAR-8 ovarian): 33.8 µM
TGI (NCI/ADR-RES ovarian): 33.5 µM
TGI (SK-MEL-2 melanoma): 30.6 µM
TGI (OVCAR-4 ovarian): 29.8 µM
TGI (NCI-H226 lung): 33.7 µM
TGI (UACC-62 melanoma): 29.4 µM
TGI (SK-MEL-28 melanoma): 30.9 µM
TGI (DU-145 prostate): 29.1 µM
TGI (MOLT-4 leukemia): 31.3 µM
TGI (ACHN renal): 34 µM
TGI (RXF 393 renal): 30 µM
TGI (SK-OV-3 ovarian): 38.1 µM
TGI (MCF7 breast): 30.4 µM
TGI (NCI-H23 lung): 32.8 µM
TGI (SNB-19 CNS): 29.5 µM
TGI (HCT-116 colon): 29.3 µM
TGI (OVCAR-3 ovarian): 23.3 µM
TGI (HS 578T breast): > 100 µM
TGI (LOX IMVI melanoma): 32.3 µM
TGI (HCC-2998 colon): 30 µM
TGI (HOP-92 NSCLC): 27.5 µM
TGI (SNB-75 CNS): 29.2 µM
TGI (HT29 colon): 29.3 µM
TGI (M14 melanoma): 28.9 µM
TGI (K-562 leukemia): 32.1 µM
TGI (CAKI-1 renal): 28.2 µM
TGI (U251 CNS): 29.6 µM
TGI (OVCAR-5 ovarian): 34.8 µM
TGI (SF-539 CNS): 41.7 µM
TGI (BT-549 breast): 32.8 µM
TGI (HCT-15 colon): 33.6 µM
TGI (EKVX NSCLC): 31.4 µM
TGI (SK-MEL-5 melanoma): 29.5 µM
TGI (786-0 renal): 31.8 µM
TGI (PC-3 prostate): 29.8 µM
TGI (TK-10 renal): 35.2 µM
TGI (CCRF-CEM leukemia): 60.4 µM
TGI (HOP-62 NSCLC): 29.5 µM
TGI (SF-295 CNS): 32.9 µM
TGI (NCI-H460 lung): 43.1 µM
TGI (IGROV1 ovarian): 32.6 µM
TGI (MDA-N): 31.9 µM
TGI (HL-60(TB) leukemia): 37.2 µM
TGI (SF-268 CNS): 37.1 µM
TGI (KM12 colon): 31.6 µM

COc1ccccc1/C=C/c1cnccn1
TGI (A549 NSCLC): > 10 µM
TGI (MDA-MB-435): > 10 µM
TGI (UACC-257 melanoma): > 10 µM
TGI (MDA-MB-231 breast): > 10 µM
TGI (T-47D breast): > 10 µM
TGI (SW-620 colon): > 10 µM
TGI (A498 renal): > 10 µM
TGI (UO-31 renal): > 10 µM
TGI (COLO 205 colon): > 10 µM
TGI (SN12C renal): > 10 µM
TGI (RPMI-8226 leukemia): > 10 µM
TGI (OVCAR-8 ovarian): > 10 µM
TGI (MALME-3M melanoma): > 10 µM
TGI (NCI/ADR-RES ovarian): > 10 µM
TGI (SK-MEL-2 melanoma): > 10 µM
TGI (OVCAR-4 ovarian): > 10 µM
TGI (NCI-H226 lung): > 10 µM
TGI (UACC-62 melanoma): > 10 µM
TGI (SK-MEL-28 melanoma): > 10 µM
TGI (DU-145 prostate): > 10 µM
TGI (MOLT-4 leukemia): > 10 µM
TGI (ACHN renal): > 10 µM
TGI (RXF 393 renal): > 10 µM
TGI (SK-OV-3 ovarian): > 10 µM
TGI (MCF7 breast): > 10 µM
TGI (NCI-H23 lung): > 10 µM
TGI (SNB-19 CNS): > 10 µM
TGI (HCT-116 colon): > 10 µM
TGI (OVCAR-3 ovarian): > 10 µM
TGI (HS 578T breast): > 10 µM
TGI (LOX IMVI melanoma): > 10 µM
TGI (HCC-2998 colon): > 10 µM
TGI (HOP-92 NSCLC): > 10 µM
TGI (SNB-75 CNS): > 10 µM
TGI (HT29 colon): > 10 µM
TGI (NCI-H522 lung): > 10 µM
TGI (M14 melanoma): > 10 µM
TGI (K-562 leukemia): > 10 µM
TGI (CAKI-1 renal): > 10 µM
TGI (U251 CNS): > 10 µM
TGI (OVCAR-5 ovarian): > 10 µM
TGI (SF-539 CNS): > 10 µM
TGI (BT-549 breast): > 10 µM
TGI (HCT-15 colon): > 10 µM
TGI (EKVX NSCLC): > 10 µM
TGI (SK-MEL-5 melanoma): > 10 µM
TGI (786-0 renal): > 10 µM
TGI (PC-3 prostate): > 10 µM
TGI (TK-10 renal): > 10 µM
TGI (CCRF-CEM leukemia): > 10 µM
TGI (HOP-62 NSCLC): > 10 µM
TGI (SF-295 CNS): > 10 µM
TGI (NCI-H460 lung): > 10 µM
TGI (IGROV1 ovarian): > 10 µM
TGI (MDA-N): > 10 µM
TGI (HL-60(TB) leukemia): > 10 µM
TGI (SF-268 CNS): > 10 µM
TGI (KM12 colon): > 10 µM
